Results: patent publication US10499642B2, “Isoxazoline-substituted benzamides and analogues as insecticides” (SYNGENTA PARTICIPATIONS AG, priority 2015, dated 2019)

What was measured:
Assay type in all cases: in vivo
Spodoptera littoralis = Spodoptera littoralis (Egyptian cotton leaf worm) cotton leaf disc test; details: foliar, 72 h, read-out: control (at least one of mortality, anti-feedant effect, and growth inhibition)
Protocol: Spodoptera littoralis (Egyptian Cotton Leaf Worm)
Cotton leaf discs were placed on agar in 24-well microtiter plates and sprayed with aqueous test solutions prepared from 10′000 ppm DMSO stock solutions. After drying the leaf discs were infested with five L1 larvae. The samples were assessed for mortality, anti-feedant effect, and growth inhibition in comparison to untreated samples 3 days after infestation. Control of Spodoptera littoralis by a test sample is when at least one of mortality, anti-feedant effect, and growth inhibition is higher than the untreated sample.

Plutella xylostella = Plutella xylostella (diamond back moth) artificial diet test; details: 120 h, read-out: effect in at least one of the two categories (mortality or growth inhibition)
Protocol: Plutella xylostella (Diamond Back Moth):
(§1) 24-well microtiter plates with artificial diet were treated with aqueous test solutions prepared from 10′000 ppm DMSO stock solutions by pipetting. After drying, the plates were infested with L2 larvae (10 to 15 per well). The samples were assessed for mortality and growth inhibition in comparison to untreated samples 5 days after infestation. The following compounds gave an effect of at least 80% in at least one of the two categories (mortality or growth inhibition) at an application rate of 200 ppm: […]

Diabrotica Balteata = experiment: Diabrotica balteata (corn root worm) maize sprout test; details: 96 h, read-out: effect in at least one of the two categories (mortality or growth inhibition)
Protocol: Diabrotica Balteata, (Corn Root Worm)
as §1, with “Maize sprouts, placed on an agar layer in 24-well” for “24-well”, “plates” for “plates with artificial diet”, “spraying.” for “pipetting.”, “(6” for “(10”, “10” for “15”, “4” for “5”

Thrips tabaci = Thrips tabaci (onion thrips) sunflower leaf disc test; details: foliar, 144 h
Protocol: Thrips tabaci (Onion Thrips):
(§2) Sunflower leaf discs were placed on agar in 24-well microtiter plates and sprayed with aqueous test solutions prepared from 10′000 ppm DMSO stock solutions. After drying the leaf discs were infested with a thrips population of mixed ages. The samples were assessed for mortality 6 days after infestation.

Tetranychus urticae = Tetranychus urticae (two-spotted spider mite) bean leaf disc test; details: foliar, 192 h
Protocol: Tetranychus urticae (Two-Spotted Spider Mite):
as §2, with “Bean” for “Sunflower”, “discs” for “discs were placed”, “were” for “and”, “mite” for “thrips”, “on mixed population (mobile stages) 8” for “6”

Myzus persicae = Myzus persicae (green peach aphid) sunflower leaf disc test; details: foliar, 144 h
Protocol: Myzus persicae (Green Peach Aphid):
Sunflower leaf discs were placed on agar in a 24-well microtiter plate and sprayed with test solutions at an application rate of 200 ppm. After drying, the leaf discs were infested with an aphid population of mixed ages. After an incubation period of 6 days after treatment, samples were checked for mortality. The following compounds gave at least 80% mortality of Myzus persicae: […]

Cc1cc(C2=NO[C@@](c3cc(Cl)c(F)c(Cl)c3)(C(F)(F)F)C2)ccc1C(=O)N[C@@H]1CC(Br)=NO1 (single isomer, unassigned) [Compound A147]
≥ 80%: percent control (mortality, anti-feedant effect or growth inhibition) at 200 ppm (Spodoptera littoralis) | percent effect (mortality or growth inhibition) at 200 ppm (Plutella xylostella) | percent effect (mortality or growth inhibition) at 200 ppm (Diabrotica Balteata) | mortality at 200 ppm (Thrips tabaci) | mortality at 200 ppm (Tetranychus urticae) | mortality at 200 ppm (Myzus persicae)

COC1=NO[C@H](NC(=O)c2ccc(C3=NO[C@@](c4cc(Cl)c(Cl)c(Cl)c4)(C(F)(F)F)C3)cc2C)C1 (single isomer, unassigned) [Compound A148]
≥ 80%: percent control (mortality, anti-feedant effect or growth inhibition) at 200 ppm (Spodoptera littoralis) | percent effect (mortality or growth inhibition) at 200 ppm (Plutella xylostella) | percent effect (mortality or growth inhibition) at 200 ppm (Diabrotica Balteata) | mortality at 200 ppm (Thrips tabaci) | mortality at 200 ppm (Tetranychus urticae) | mortality at 200 ppm (Myzus persicae)

COC1=NO[C@@H](NC(=O)c2ccc(C3=NO[C@@](c4cc(Cl)c(Cl)c(Cl)c4)(C(F)(F)F)C3)cc2C)C1 (single isomer, unassigned) [Compound A149]
≥ 80%: percent control (mortality, anti-feedant effect or growth inhibition) at 200 ppm (Spodoptera littoralis) | percent effect (mortality or growth inhibition) at 200 ppm (Plutella xylostella) | percent effect (mortality or growth inhibition) at 200 ppm (Diabrotica Balteata) | mortality at 200 ppm (Thrips tabaci) | mortality at 200 ppm (Tetranychus urticae) | mortality at 200 ppm (Myzus persicae)

COC1=NO[C@H](NC(=O)c2ccc(C3=NO[C@@](c4cc(Cl)c(F)c(Cl)c4)(C(F)(F)F)C3)cc2C)C1 (single isomer, unassigned) [Compound A150]
≥ 80%: percent control (mortality, anti-feedant effect or growth inhibition) at 200 ppm (Spodoptera littoralis) | percent effect (mortality or growth inhibition) at 200 ppm (Plutella xylostella) | percent effect (mortality or growth inhibition) at 200 ppm (Diabrotica Balteata) | mortality at 200 ppm (Thrips tabaci) | mortality at 200 ppm (Tetranychus urticae) | mortality at 200 ppm (Myzus persicae)

Cc1cc(C2=NO[C@@](c3cc(Cl)cc(Cl)c3)(C(F)(F)F)C2)ccc1C(=O)N[C@@H]1CC(C(F)(F)F)=NO1 (single isomer, unassigned) [Compound A154]
≥ 80%: percent control (mortality, anti-feedant effect or growth inhibition) at 200 ppm (Spodoptera littoralis) | percent effect (mortality or growth inhibition) at 200 ppm (Plutella xylostella) | percent effect (mortality or growth inhibition) at 200 ppm (Diabrotica Balteata) | mortality at 200 ppm (Thrips tabaci) | mortality at 200 ppm (Tetranychus urticae) | mortality at 200 ppm (Myzus persicae)

Cc1cc(C2=NO[C@@](c3cc(Cl)cc(Cl)c3)(C(F)(F)F)C2)ccc1C(=O)N[C@H]1CC(C(F)(F)F)=NO1 (single isomer, unassigned) [Compound A155]
≥ 80%: percent control (mortality, anti-feedant effect or growth inhibition) at 200 ppm (Spodoptera littoralis) | percent effect (mortality or growth inhibition) at 200 ppm (Plutella xylostella) | percent effect (mortality or growth inhibition) at 200 ppm (Diabrotica Balteata) | mortality at 200 ppm (Thrips tabaci) | mortality at 200 ppm (Tetranychus urticae) | mortality at 200 ppm (Myzus persicae)

Cc1cc(C2=NO[C@@](c3cc(Cl)cc(Cl)c3)(C(F)(F)F)C2)ccc1C(=O)N[C@@H]1CC(OCC(F)(F)F)=NO1 (single isomer, unassigned) [Compound A156]
≥ 80%: percent control (mortality, anti-feedant effect or growth inhibition) at 200 ppm (Spodoptera littoralis) | percent effect (mortality or growth inhibition) at 200 ppm (Plutella xylostella) | percent effect (mortality or growth inhibition) at 200 ppm (Diabrotica Balteata) | mortality at 200 ppm (Thrips tabaci) | mortality at 200 ppm (Tetranychus urticae) | mortality at 200 ppm (Myzus persicae)

CCOC1=NO[C@H](NC(=O)c2ccc(C3=NO[C@@](c4cc(Cl)cc(Cl)c4)(C(F)(F)F)C3)cc2C)C1 (single isomer, unassigned) [Compound A158]
≥ 80%: percent control (mortality, anti-feedant effect or growth inhibition) at 200 ppm (Spodoptera littoralis) | percent effect (mortality or growth inhibition) at 200 ppm (Plutella xylostella) | percent effect (mortality or growth inhibition) at 200 ppm (Diabrotica Balteata) | mortality at 200 ppm (Thrips tabaci) | mortality at 200 ppm (Tetranychus urticae) | mortality at 200 ppm (Myzus persicae)

Cc1cc(C2=NO[C@@](c3cc(Cl)c(F)c(Cl)c3)(C(F)(F)F)C2)ccc1C(=O)NC1CC(Br)=NO1 (stereo partly drawn) [Compound A001, N-(3-bromo-4,5-dihydroisoxazol-5-yl)-4-[(5S)-5-(3,5-dichloro-4-fluoro-phenyl)-5-(trifluoromethyl)-4H-isoxazol-3-yl]-2-methyl-benzamide]
≥ 80%: percent control (mortality, anti-feedant effect or growth inhibition) at 200 ppm (Spodoptera littoralis) | percent effect (mortality or growth inhibition) at 200 ppm (Plutella xylostella) | percent effect (mortality or growth inhibition) at 200 ppm (Diabrotica Balteata) | mortality at 200 ppm (Thrips tabaci) | mortality at 200 ppm (Tetranychus urticae) | mortality at 200 ppm (Myzus persicae)

Cc1cc(C2=NO[C@@](c3cc(Cl)c(F)c(Cl)c3)(C(F)(F)F)C2)ccc1C(=O)N(C=O)C1CC(Br)=NO1 (stereo partly drawn) [Compound A002, N-(3-bromo-4,5-dihydroisoxazol-5-yl)-4-[(5S)-5-(3,5-dichloro-4-fluoro-phenyl)-5-(trifluoromethyl)-4H-isoxazol-3-yl]-N-formyl-2-methyl-benzamide]
≥ 80%: percent control (mortality, anti-feedant effect or growth inhibition) at 200 ppm (Spodoptera littoralis) | percent effect (mortality or growth inhibition) at 200 ppm (Plutella xylostella) | percent effect (mortality or growth inhibition) at 200 ppm (Diabrotica Balteata) | mortality at 200 ppm (Thrips tabaci) | mortality at 200 ppm (Tetranychus urticae) | mortality at 200 ppm (Myzus persicae)

Cc1cc(C2=NO[C@@](c3cc(Cl)c(F)c(Cl)c3)(C(F)(F)F)C2)ccc1C(=O)NC1CC(Cl)=NO1 (stereo partly drawn) [Compound A003, N-(3-chloro-4,5-dihydroisoxazol-5-yl)-4-[(5S)-5-(3,5-dichloro-4-fluoro-phenyl)-5-(trifluoromethyl)-4H-isoxazol-3-yl]-2-methyl-benzamide]
≥ 80%: percent control (mortality, anti-feedant effect or growth inhibition) at 200 ppm (Spodoptera littoralis) | percent effect (mortality or growth inhibition) at 200 ppm (Plutella xylostella) | percent effect (mortality or growth inhibition) at 200 ppm (Diabrotica Balteata) | mortality at 200 ppm (Thrips tabaci) | mortality at 200 ppm (Tetranychus urticae) | mortality at 200 ppm (Myzus persicae)

Cc1cc(C2=NO[C@@](c3cc(Cl)c(F)c(Cl)c3)(C(F)(F)F)C2)ccc1C(=O)N(C=O)C1CC(C(F)(F)F)=NO1 (stereo partly drawn) [Compound A004, 4-[(5S)-5-(3,5-dichloro-4-fluoro-phenyl)-5-(trifluoromethyl)-4H-isoxazol-3-yl]-N-formyl-2-methyl-N-[3-(trifluoromethyl)-4,5-dihydroisoxazol-5-yl]benzamide]
≥ 80%: percent control (mortality, anti-feedant effect or growth inhibition) at 200 ppm (Spodoptera littoralis) | percent effect (mortality or growth inhibition) at 200 ppm (Plutella xylostella) | percent effect (mortality or growth inhibition) at 200 ppm (Diabrotica Balteata) | mortality at 200 ppm (Thrips tabaci) | mortality at 200 ppm (Tetranychus urticae) | mortality at 200 ppm (Myzus persicae)

Cc1cc(C2=NO[C@@](c3cc(Cl)c(Cl)c(Cl)c3)(C(F)(F)F)C2)ccc1C(=O)NC1CC(OCC(=O)N(C)C)=NO1 (stereo partly drawn) [Compound A114, N-[3-[2-(dimethylamino)-2-oxo-ethoxy]-4,5-dihydroisoxazol-5-yl]-2-methyl-4-[(5S)-5-(3,4,5-trichlorophenyl)-5-(trifluoromethyl)-4H-isoxazol-3-yl]benzamide]
≥ 80%: percent control (mortality, anti-feedant effect or growth inhibition) at 200 ppm (Spodoptera littoralis) | percent effect (mortality or growth inhibition) at 200 ppm (Plutella xylostella) | mortality at 200 ppm (Thrips tabaci) | mortality at 200 ppm (Tetranychus urticae) | mortality at 200 ppm (Myzus persicae)

C/C(N)=N/OC1=NOC(NC(=O)c2ccc(C3=NO[C@@](c4cc(Cl)c(F)c(Cl)c4)(C(F)(F)F)C3)cc2C)C1 (stereo partly drawn) [Compound A143, N-[3-[(Z)-1-aminoethylideneamino]oxy-4,5-dihydroisoxazol-5-yl]-4-[(5S)-5-(3,5-dichloro-4-fluoro-phenyl)-5-(trifluoromethyl)-4H-isoxazol-3-yl]-2-methyl-benzamide]
≥ 80%: percent control (mortality, anti-feedant effect or growth inhibition) at 200 ppm (Spodoptera littoralis) | percent effect (mortality or growth inhibition) at 200 ppm (Plutella xylostella) | percent effect (mortality or growth inhibition) at 200 ppm (Diabrotica Balteata) | mortality at 200 ppm (Thrips tabaci) | mortality at 200 ppm (Tetranychus urticae)
